Columns and labels:
[1] = refractive index (Na D-line) (dimensionless); xn = mol fraction of the nth substance listed; settings: 101 kPa, Liquid, Standard Abbe refractometry
[2] = xn = mol fraction of the nth substance listed; settings: 101 kPa, Liquid; for speed of sound: Sing-around technique in a fixed-path interferometer

Cc1ccccc1O [2-methylphenol] + CCCCCCCCCCO
Settings | mass density, 298.15 K [kg/m3] | mass density, 303.15 K [kg/m3] | mass density, 308.15 K [kg/m3] | refractive index, 298.15 K | refractive index, 303.15 K | refractive index, 308.15 K | speed of sound, 298.15 K [m/s] | speed of sound, 303.15 K [m/s] | speed of sound, 308.15 K [m/s]
[1], x1 = 0.0861 | – | – | – | 1.43944 | 1.43742 | 1.43507 | – | – | –
[1], x1 = 0.1516 | – | – | – | 1.44351 | 1.44139 | 1.43893 | – | – | –
[1], x1 = 0.2077 | – | – | – | 1.44727 | 1.44505 | 1.44249 | – | – | –
[1], x1 = 0.2717 | – | – | – | 1.45185 | 1.44952 | 1.44685 | – | – | –
[1], x1 = 0.334 | – | – | – | 1.45667 | 1.45426 | 1.45145 | – | – | –
[1], x1 = 0.4103 | – | – | – | 1.46311 | 1.46058 | 1.45761 | – | – | –
[1], x1 = 0.4797 | – | – | – | 1.46956 | 1.46691 | 1.46379 | – | – | –
[1], x1 = 0.5545 | – | – | – | 1.47719 | 1.47444 | 1.47117 | – | – | –
[1], x1 = 0.6165 | – | – | – | 1.48412 | 1.48132 | 1.47792 | – | – | –
[1], x1 = 0.6875 | – | – | – | 1.49283 | 1.49001 | 1.48643 | – | – | –
[1], x1 = 0.7538 | – | – | – | 1.50182 | 1.49892 | 1.49522 | – | – | –
[1], x1 = 0.8245 | – | – | – | 1.51242 | 1.50948 | 1.50566 | – | – | –
[1], x1 = 0.8811 | – | – | – | 1.52175 | 1.51879 | 1.51489 | – | – | –
[1], x1 = 0.941 | – | – | – | 1.53252 | 1.52952 | 1.52555 | – | – | –
[1], x1 = 1 | – | – | – | 1.544 | 1.54099 | 1.53699 | – | – | –
[2], x1 = 0.0861 | 837.502 | 834.018 | 830.549 | – | – | – | 1385.1 | 1368 | 1351.1
[2], x1 = 0.1516 | 846.353 | 842.829 | 839.316 | – | – | – | 1389.3 | 1372.1 | 1355.2
[2], x1 = 0.2077 | 854.319 | 850.761 | 847.206 | – | – | – | 1393 | 1375.7 | 1358.8
[2], x1 = 0.2717 | 863.895 | 860.293 | 856.691 | – | – | – | 1397.2 | 1379.9 | 1363.1
[2], x1 = 0.334 | 873.784 | 870.135 | 866.475 | – | – | – | 1401.6 | 1384.3 | 1367.4
[2], x1 = 0.4103 | 886.741 | 883.035 | 879.298 | – | – | – | 1407.6 | 1390.3 | 1373.2
[2], x1 = 0.4797 | 899.465 | 895.693 | 891.869 | – | – | – | 1413.7 | 1396.5 | 1379.2
[2], x1 = 0.5545 | 914.345 | 910.475 | 906.559 | – | – | – | 1421.3 | 1404 | 1386.8
[2], x1 = 0.6165 | 927.694 | 923.735 | 919.727 | – | – | – | 1428.4 | 1411.1 | 1394.1
[2], x1 = 0.6875 | 944.316 | 940.209 | 936.089 | – | – | – | 1437.8 | 1420.7 | 1403.7
[2], x1 = 0.7538 | 961.343 | 957.079 | 952.828 | – | – | – | 1448.2 | 1431 | 1414.1
[2], x1 = 0.8245 | 981.399 | 976.894 | 972.475 | – | – | – | 1461.2 | 1444 | 1426.8
[2], x1 = 0.8811 | 999.121 | 994.379 | 989.769 | – | – | – | 1473.5 | 1456.2 | 1439.1
[2], x1 = 0.941 | 1019.75 | 1014.71 | 1009.79 | – | – | – | 1488.8 | 1471.6 | 1454.4
[2], x1 = 1 | 1042.32 | 1036.94 | 1031.55 | – | – | – | 1504.6 | 1487.4 | 1470.3

From the NIST ThermoML archive (doi:10.1021/je100362p)
